# Experimental data taken from publication PMC5218480 (PLoS ONE, 2017).
# Test system: MV-4-11 cells
# Test: Gene expression microarray analysis (Affymetrix PrimeView) and GSEA
# Type: cell-based, human
# Set-up: RFU PODN (11730768_x_at) / Fold change /veh PODN (11730768_x_at) / RFU LINC00158 (11744669_a_at) / Fold change /veh LINC00158 (11744669_a_at) / RFU DUSP10 (11751237_a_at) / Fold change /veh DUSP10 (11751237_a_at) / RFU ID3 (11757404_x_at) / Fold change /veh ID3 (11757404_x_at) / RFU PLEKHG5 (11737974_s_at) / Fold change /veh PLEKHG5 (11737974_s_at) / RFU LRRC4B (11730491_at) / Fold change /veh LRRC4B (11730491_at) / RFU GIMAP4 (11747438_a_at) / Fold change /veh GIMAP4 (11747438_a_at) / RFU KRT8 (11758183_x_at) / Fold change /veh KRT8 (11758183_x_at) / RFU CNN1 (11734310_a_at) / Fold change /veh CNN1 (11734310_a_at) / RFU VPS37D (11726825_at) / Fold change /veh VPS37D (11726825_at) / RFU C10orf10 (11716522_x_at) / Fold change /veh C10orf10 (11716522_x_at) / RFU KIR2DL2 /// KIR2DL4 /// KIR2DL5A /// KIR2DL5B /// KIR2DS1 /// KIR2DS2 /// KIR2DS3 /// KIR2DS4 /// KIR3DL3 /// KIR3DL3 /// KIR3DS1 (11738374_at) / Fold change /veh KIR2DL2 /// KIR2DL4 /// KIR2DL5A /// KIR2DL5B /// KIR2DS1 /// KIR2DS2 /// KIR2DS3 /// KIR2DS4 /// KIR3DL3 /// KIR3DL3 /// KIR3DS1 (11738374_at) / RFU C1QL1 (11718748_at) / Fold change /veh C1QL1 (11718748_at) / RFU TMPRSS4 (11747572_a_at) / Fold change /veh TMPRSS4 (11747572_a_at) / RFU HAMP (11756126_x_at) / Fold change /veh HAMP (11756126_x_at) / RFU RNFT2 (11725882_a_at) / Fold change /veh RNFT2 (11725882_a_at) / RFU NR4A2 (11747474_a_at) / Fold change /veh NR4A2 (11747474_a_at) / RFU ABCC12 (11746883_a_at) / Fold change /veh ABCC12 (11746883_a_at) / RFU TMEM136 (11760407_x_at) / Fold change /veh TMEM136 (11760407_x_at) / RFU CLDN22 /// WWC2 (11732394_at) / Fold change /veh CLDN22 /// WWC2 (11732394_at) / RFU HLA-DPB1 (11760878_x_at) / Fold change /veh HLA-DPB1 (11760878_x_at) / RFU SPINT1 (11716480_a_at) / Fold change /veh SPINT1 (11716480_a_at) / RFU GAP43 (11754022_s_at) / Fold change /veh GAP43 (11754022_s_at) / RFU A4GNT (11735810_at) / Fold change /veh A4GNT (11735810_at) / RFU PRB3 (11715151_x_at) / Fold change /veh PRB3 (11715151_x_at) / RFU TUBB4B (11761932_at) / Fold change /veh TUBB4B (11761932_at) / RFU CAPN14 (11732068_a_at) / Fold change /veh CAPN14 (11732068_a_at) / RFU TMCC2 (11721928_a_at) / Fold change /veh TMCC2 (11721928_a_at) / RFU IRGQ (11745062_a_at) / Fold change /veh IRGQ (11745062_a_at) / RFU FAM174B (11720279_a_at) / Fold change /veh FAM174B (11720279_a_at) / RFU TMPRSS4 (11748680_a_at) / Fold change /veh TMPRSS4 (11748680_a_at) / RFU FAM212B (11763350_a_at) / Fold change /veh FAM212B (11763350_a_at) / RFU PLEKHG5 (11743358_a_at) / Fold change /veh PLEKHG5 (11743358_a_at) / RFU ZSCAN30 (11745921_a_at) / Fold change /veh ZSCAN30 (11745921_a_at) / RFU CMKLR1 (11741424_a_at) / Fold change /veh CMKLR1 (11741424_a_at) / RFU LOC101060620 /// MAPK8IP1 (11723275_at) / Fold change /veh LOC101060620 /// MAPK8IP1 (11723275_at) / RFU SPTSSB (11747773_x_at) / Fold change /veh SPTSSB (11747773_x_at) / RFU PRSS12 (11739890_at) / Fold change /veh PRSS12 (11739890_at) / RFU BIN1 (11741810_x_at) / Fold change /veh BIN1 (11741810_x_at) / RFU WNT11 (11732464_a_at) / Fold change /veh WNT11 (11732464_a_at) / RFU C10orf10 (11716521_a_at) / Fold change /veh C10orf10 (11716521_a_at) / RFU C5orf56 (11738089_at) / Fold change /veh C5orf56 (11738089_at) / RFU CYB561 (11721691_x_at) / Fold change /veh CYB561 (11721691_x_at) / RFU ANKRD19P (11752326_a_at) / Fold change /veh ANKRD19P (11752326_a_at) / RFU OR2T12 /// OR2T33 /// OR2T8 (11738714_s_at) / Fold change /veh OR2T12 /// OR2T33 /// OR2T8 (11738714_s_at) / RFU VCAN (11748164_a_at) / Fold change /veh VCAN (11748164_a_at) / RFU JSRP1 (11732532_at) / Fold change /veh JSRP1 (11732532_at) / RFU KRTAP10-11 (11738290_x_at) / Fold change /veh KRTAP10-11 (11738290_x_at) / RFU MYO3A (11730013_a_at) / Fold change /veh MYO3A (11730013_a_at) / RFU EBF3 (11725865_a_at) / Fold change /veh EBF3 (11725865_a_at) / RFU CAMK2N1 (11719241_x_at) / Fold change /veh CAMK2N1 (11719241_x_at) / RFU C5orf56 (11738088_a_at) / Fold change /veh C5orf56 (11738088_a_at) / RFU OLFML3 (11715873_a_at) / Fold change /veh OLFML3 (11715873_a_at) / RFU LOC100653217 /// NTM (11731650_a_at) / Fold change /veh LOC100653217 /// NTM (11731650_a_at) / RFU MAPK11 (11762145_a_at) / Fold change /veh MAPK11 (11762145_a_at) / RFU FIZ1 (11724087_x_at) / Fold change /veh FIZ1 (11724087_x_at) / RFU OASL (11726364_x_at) / Fold change /veh OASL (11726364_x_at) / RFU SOX15 (11748057_x_at) / Fold change /veh SOX15 (11748057_x_at) / RFU CD79A (11719716_a_at) / Fold change /veh CD79A (11719716_a_at) / RFU HIST1H1D (11736915_at) / Fold change /veh HIST1H1D (11736915_at) / RFU CASKIN2 (11723855_a_at) / Fold change /veh CASKIN2 (11723855_a_at) / RFU LOC730098 (11760151_x_at) / Fold change /veh LOC730098 (11760151_x_at) / RFU OR4N2 (11742367_at) / Fold change /veh OR4N2 (11742367_at) / RFU PRRT2 (11749266_a_at) / Fold change /veh PRRT2 (11749266_a_at) / RFU SNX32 (11753110_a_at) / Fold change /veh SNX32 (11753110_a_at) / RFU CDHR5 (11726645_a_at) / Fold change /veh CDHR5 (11726645_a_at) / RFU RCAN1 (11760418_a_at) / Fold change /veh RCAN1 (11760418_a_at) / RFU FAM167A (11723789_a_at) / Fold change /veh FAM167A (11723789_a_at) / RFU FAM26E (11764081_at) / Fold change /veh FAM26E (11764081_at) / RFU ISYNA1 (11749810_s_at) / Fold change /veh ISYNA1 (11749810_s_at) / RFU ACY1 (11761880_at) / Fold change /veh ACY1 (11761880_at) / RFU 11764098_at / Fold change /veh 11764098_at / RFU SAMD14 (11745864_x_at) / Fold change /veh SAMD14 (11745864_x_at) / RFU NPB (11741838_a_at) / Fold change /veh NPB (11741838_a_at) / RFU TMPRSS6 (11731388_a_at) / Fold change /veh TMPRSS6 (11731388_a_at) / RFU KRTAP10-2 (11738614_at) / Fold change /veh KRTAP10-2 (11738614_at) / RFU ARHGAP8 /// PRR5-ARHGAP8 (11727945_x_at) / Fold change /veh ARHGAP8 /// PRR5-ARHGAP8 (11727945_x_at) / RFU KRTAP5-7 /// NADSYN1 (11734609_at) / Fold change /veh KRTAP5-7 /// NADSYN1 (11734609_at) / RFU RASL12 (11751679_a_at) / Fold change /veh RASL12 (11751679_a_at) / RFU CDKN2B (11736163_a_at) / Fold change /veh CDKN2B (11736163_a_at) / RFU PRF1 (11729649_at) / Fold change /veh PRF1 (11729649_at) / RFU, ZNF638 /// ZNF638-IT1 / Fold change vs veh, ZNF638 /// ZNF638-IT1 / RFU, PANK3 / Fold change vs veh, PANK3 / RFU, SH3YL1 / Fold change vs veh, SH3YL1 / RFU, ZEB2 / Fold change vs veh, ZEB2 / RFU, NRIP1 / Fold change vs veh, NRIP1 / RFU, PTTG1IP / Fold change vs veh, PTTG1IP / RFU, CAPN2 / Fold change vs veh, CAPN2 / RFU, MED14 / Fold change vs veh, MED14 / RFU, SNORA58 / Fold change vs veh, SNORA58 / RFU, C1orf63 / Fold change vs veh, C1orf63 / RFU, LRRFIP1 / Fold change vs veh, LRRFIP1 / RFU, NDUFAF7 / Fold change vs veh, NDUFAF7 / RFU, SLC12A2 / Fold change vs veh, SLC12A2 / RFU, IBTK / Fold change vs veh, IBTK / RFU, ESF1 / Fold change vs veh, ESF1 / Fold change vs veh, TMEM50B / RFU, TAOK1 / Fold change vs veh, TAOK1 / RFU, ACBD3 / Fold change vs veh, ACBD3 / RFU, TMA16 / Fold change vs veh, TMA16 / RFU, RWDD3 / Fold change vs veh, RWDD3 / RFU, BCAT1 / Fold change vs veh, BCAT1 / RFU, EDEM3 / Fold change vs veh, EDEM3 / RFU, TMEM33 / Fold change vs veh, TMEM33 / RFU, WDR75 / Fold change vs veh, WDR75 / RFU, AHCTF1 / Fold change vs veh, AHCTF1 / RFU, TFRC / Fold change vs veh, TFRC / RFU, ZDHHC17 / Fold change vs veh, ZDHHC17 / RFU, NOM1 / Fold change vs veh, NOM1 / RFU, ARL8B / Fold change vs veh, ARL8B / RFU, ZBTB11 / Fold change vs veh, ZBTB11 / RFU, TAMM41 / Fold change vs veh, TAMM41 / RFU, KIAA1704 /// LOC100996395 / Fold change vs veh, KIAA1704 /// LOC100996395 / RFU, ING1 / Fold change vs veh, ING1 / RFU, TRMT61B / Fold change vs veh, TRMT61B / RFU, FUBP3 / Fold change vs veh, FUBP3 / RFU, TP53 / Fold change vs veh, TP53 / RFU, TNKS2 / Fold change vs veh, TNKS2 / RFU, ZFP14 / Fold change vs veh, ZFP14 / RFU, ACTR2 / Fold change vs veh, ACTR2 / RFU, PPP3R1 / Fold change vs veh, PPP3R1 / RFU, PIK3R1 / Fold change vs veh, PIK3R1 / RFU, HNRNPA1 / Fold change vs veh, HNRNPA1 / RFU, RNF170 / Fold change vs veh, RNF170 / RFU, ZNF28 / Fold change vs veh, ZNF28 / RFU, RNGTT / Fold change vs veh, RNGTT / RFU, OGT / Fold change vs veh, OGT / RFU, BRD1 / Fold change vs veh, BRD1 / RFU, MARS / Fold change vs veh, MARS / RFU, ZNF655 / Fold change vs veh, ZNF655 / RFU, FAHD1 / Fold change vs veh, FAHD1 / RFU, BDP1 / Fold change vs veh, BDP1 / RFU, LRRCC1 / Fold change vs veh, LRRCC1 / RFU, ARID1A / Fold change vs veh, ARID1A / RFU, ZNF146 / Fold change vs veh, ZNF146 / RFU, ZNF330 / Fold change vs veh, ZNF330 / RFU, GPN3 / Fold change vs veh, GPN3 / RFU, C9orf123 / Fold change vs veh, C9orf123 / RFU, N4BP2L2 / Fold change vs veh, N4BP2L2 / RFU, ARFIP1 / Fold change vs veh, ARFIP1 / RFU, FAM179B / Fold change vs veh, FAM179B / RFU, BCL10 / Fold change vs veh, BCL10 / RFU, UHRF1BP1L / Fold change vs veh, UHRF1BP1L / RFU, BET1 / Fold change vs veh, BET1 / RFU, CNOT2 / Fold change vs veh, CNOT2 / RFU, ZNF268 / Fold change vs veh, ZNF268 / Fold change vs veh, ZNF507 / RFU, DGCR2 / Fold change vs veh, DGCR2 / RFU, WDSUB1 / Fold change vs veh, WDSUB1 / Fold change vs veh, HSP90B1 /// MIR3652 / RFU, ADSS / Fold change vs veh, ADSS / RFU, GK / Fold change vs veh, GK / RFU, ZNF148 / Fold change vs veh, ZNF148 / RFU, TAF9 / Fold change vs veh, TAF9 / RFU, SLC1A5 / Fold change vs veh, SLC1A5 / RFU, SLMO2 / Fold change vs veh, SLMO2 / RFU, ABCC4 / Fold change vs veh, ABCC4 / RFU, LOC101060439 /// RAP1B / Fold change vs veh, LOC101060439 /// RAP1B / RFU, RFX7 / Fold change vs veh, RFX7 / RFU, GTPBP10 / Fold change vs veh, GTPBP10 / RFU, CNEP1R1 / Fold change vs veh, CNEP1R1 / RFU, BIVM-ERCC5 /// ERCC5 / Fold change vs veh, BIVM-ERCC5 /// ERCC5 / RFU, ILF3 / Fold change vs veh, ILF3 / RFU 11762660_at / Fold change /veh 11762660_at / RFU VCAN (11757783_s_at) / Fold change /veh VCAN (11757783_s_at) / RFU DDX43 (11728927_at) / Fold change /veh DDX43 (11728927_at) / RFU KRT8 (11758188_x_at) / Fold change /veh KRT8 (11758188_x_at) / RFU NKD1 (11759106_at) / Fold change /veh NKD1 (11759106_at) / RFU SRD5A1 (11742802_a_at) / Fold change /veh SRD5A1 (11742802_a_at) / RFU TPSAB1 /// TPSB2 (11721975_s_at) / Fold change /veh TPSAB1 /// TPSB2 (11721975_s_at) / RFU GSTM3 (11746129_a_at) / Fold change /veh GSTM3 (11746129_a_at) / RFU IL23R (11737362_x_at) / Fold change /veh IL23R (11737362_x_at) / RFU TMEM51 (11727254_a_at) / Fold change /veh TMEM51 (11727254_a_at) / RFU PIWIL2 (11732686_x_at) / Fold change /veh PIWIL2 (11732686_x_at) / RFU ORM1 (11744905_x_at) / Fold change /veh ORM1 (11744905_x_at) / RFU CCDC152 (11743942_at) / Fold change /veh CCDC152 (11743942_at) / RFU ECM1 (11717891_a_at) / Fold change /veh ECM1 (11717891_a_at) / RFU IL23R (11748794_a_at) / Fold change /veh IL23R (11748794_a_at) / RFU TNFAIP8L3 (11732012_x_at) / Fold change /veh TNFAIP8L3 (11732012_x_at) / RFU MBOAT4 (11741988_at) / Fold change /veh MBOAT4 (11741988_at) / RFU 11764193_at / Fold change /veh 11764193_at / RFU TMEM53 (11763286_at) / Fold change /veh TMEM53 (11763286_at) / RFU MAGEB2 (11727129_at) / Fold change /veh MAGEB2 (11727129_at) / RFU TMEM200A (11744735_a_at) / Fold change /veh TMEM200A (11744735_a_at) / RFU CCDC152 (11751479_a_at) / Fold change /veh CCDC152 (11751479_a_at) / RFU FAM211A (11726209_a_at) / Fold change /veh FAM211A (11726209_a_at) / RFU RGS16 (11746705_a_at) / Fold change /veh RGS16 (11746705_a_at) / RFU VCAN (11755009_s_at) / Fold change /veh VCAN (11755009_s_at) / RFU RHOB (11743442_s_at) / Fold change /veh RHOB (11743442_s_at) / RFU RGS16 (11720943_a_at) / Fold change /veh RGS16 (11720943_a_at) / RFU RGS16 (11720944_at) / Fold change /veh RGS16 (11720944_at) / RFU, VPS4B / Fold change vs veh, VPS4B / RFU, CREB1 / Fold change vs veh, CREB1 / RFU, DNAJC13 / Fold change vs veh, DNAJC13 / RFU, GNAQ / Fold change vs veh, GNAQ / RFU, CDK5R1 / Fold change vs veh, CDK5R1 / RFU, ZRANB3 / Fold change vs veh, ZRANB3 / RFU, CUL4A / Fold change vs veh, CUL4A / RFU, CCNY / Fold change vs veh, CCNY / RFU, UFL1 / Fold change vs veh, UFL1 / RFU, COG3 / Fold change vs veh, COG3 / RFU, DIAPH2 / Fold change vs veh, DIAPH2 / RFU, SKA2 / Fold change vs veh, SKA2 / RFU, AFF3 / Fold change vs veh, AFF3 / RFU, LMF1 / Fold change vs veh, LMF1 / RFU, IPO11 / Fold change vs veh, IPO11 / RFU, DFFB / Fold change vs veh, DFFB / RFU, FOXP1 / Fold change vs veh, FOXP1 / RFU, CARD8 / Fold change vs veh, CARD8 / RFU, STRN3 / Fold change vs veh, STRN3 / RFU, ADK / Fold change vs veh, ADK / RFU, RASSF2 / Fold change vs veh, RASSF2 / RFU, WIPF1 / Fold change vs veh, WIPF1 / RFU, LARP1B / Fold change vs veh, LARP1B / RFU, RASA1 / Fold change vs veh, RASA1 / RFU, RB1 / Fold change vs veh, RB1 / RFU, PPFIA1 / Fold change vs veh, PPFIA1 / RFU, MAT2A / Fold change vs veh, MAT2A / RFU, CCT5 / Fold change vs veh, CCT5 / RFU, WDR92 / Fold change vs veh, WDR92 / RFU, CUX1 / Fold change vs veh, CUX1 / RFU, TTC7A / Fold change vs veh, TTC7A / RFU, TMEM135 / Fold change vs veh, TMEM135 / RFU, DEPTOR / Fold change vs veh, DEPTOR / RFU, CPM / Fold change vs veh, CPM / RFU, DNAJB6 / Fold change vs veh, DNAJB6 / RFU, CACNA2D3 / Fold change vs veh, CACNA2D3 / RFU, DTX4 / Fold change vs veh, DTX4 / RFU, TFCP2 / Fold change vs veh, TFCP2 / RFU, GMCL1 /// GMCL1P1 / Fold change vs veh, GMCL1 /// GMCL1P1 / RFU, AEBP2 / Fold change vs veh, AEBP2 / RFU, SNHG1 /// SNORD22 /// SNORD25 /// SNORD26 /// SNORD27 /// SNORD28 /// SNORD29 /// SNORD31 / Fold change vs veh, SNHG1 /// SNORD22 /// SNORD25 /// SNORD26 /// SNORD27 /// SNORD28 /// SNORD29 /// SNORD31 / Fold change (Aza/veh), C12orf56 (ProbeSet 11735607_a_at) / Fold change (ACY-1035/veh), C12orf56 (ProbeSet 11735607_a_at) / Fold change (Aza/veh), FGFR1OP (ProbeSet 11751329_s_at) / Fold change (ACY-1035/veh), FGFR1OP (ProbeSet 11751329_s_at) / Fold change (Aza/veh), VPS36 (ProbeSet 11739960_a_at) / Fold change (ACY-1035/veh), VPS36 (ProbeSet 11739960_a_at) / RFU SYPL1 (11715823_x_at) / Fold change /veh SYPL1 (11715823_x_at) / RFU IGFBP7 (11715501_s_at) / Fold change /veh IGFBP7 (11715501_s_at) / RFU REEP3 (11722064_at) / Fold change /veh REEP3 (11722064_at) / RFU IGLL1 (11728026_x_at) / Fold change /veh IGLL1 (11728026_x_at): dose or concentration left out as unconfirmed
# Conditions: ProbeSet 11721969_s_at; LIST B
compound,measurement,value
Nc1ncn([C@@H]2O[C@H](CO)[C@@H](O)[C@H]2O)c(=O)n1 [azacitidine],"RFU, BDP1",496.27 RFU
